# Reference: patent publication US20140065655A1, “SCREENING METHOD FOR SUBSTANCE ACTING ON MAINTENANCE OF EPITHELIAL PROPERTIES OF CELL” (SCIVAX CORPORATION, priority 2012, published 2014)
# Experiments:
# E-cadherin = experiment: qRT-PCR expression level of E-cadherin gene (epithelial marker) in A549 spheroids; format: cell-based, human; conditions: A549, SB431542 10 μM with TGF-β2 5 ng/ml and TNF-α 10 ng/ml, sixth day, corrected by TBP (FIG. 6)
# Procedure: (§1) In order to verify whether or not a change in the morphology of the spheroid confirmed in the second example reflects an epithelial-mesenchymal transition and an epithelial-mesenchymal transition inhibition, a result of measuring an expression level of a gene that is known as an epithelial or mesenchymal marker through qRT-PCR is shown in FIGS. 6 to 9. The processes from (1) pre-incubation to (3) addition of the epithelial-mesenchymal transition inducer and inhibitor were carried out likewise the second example. Next, at the sixth day of the culturing, all RNAs were extracted from each sample using RNeasy Plus Mini Kit (made by QIAGEN corporation), and such RNAs having undergone reverse transcription using PrimeScript RT reagent Kit (made by TAKARABIO Inc.) were used for qRT-PCR. SYBER Premix Ex Tagll (made by TAKARABIO Inc.) was used for PCR. Moreover, Thermal Cycler Dice (made by TAKARABIO Inc.) was used for a reaction and a detection. Note that data is corrected by the expression level of internal standard gene (TBP), and is shown as a relative value when the expression level of the control is taken as 1.
# N-cadherin = experiment: qRT-PCR expression level of N-cadherin gene (mesenchymal marker) in A549 spheroids; format: cell-based, human; conditions: A549, SB431542 10 μM with TGF-β2 5 ng/ml and TNF-α 10 ng/ml, sixth day, corrected by TBP (FIG. 7)
# Procedure: as §1
# [1] = test system: human-lung-cancer-cells derived strain A549; experiment: Effect of epithelial-mesenchymal transition inhibitor on morphology and hypoxic area (LOX-1 red signal) of spheroids on NanoCulture plate; format: cell-based
# Procedure: 5-%-FBS-containing DMEM culture medium and 1.0-%-Matrigel (registered trademark) containing DMEM culture medium were added in respective wells of a cell culture vessels NanoCulture (registered trademark) plate (made by SCIVAX corporation, 384-well plate, material of concavity-convexity structure surface=polymethylpentene (TPX made by MITSUI Chemical Co., Ltd.), planar shape of concavo-convex structure=square, width between unit structures (line width)=700 nm, minimum internal diameter of unit structure=3 μm, and depth=1 μm) by 25 μl, and were subjected to centrifugal force for five minutes at 1000×g.
# A cell suspension having human-lung-cancer-cells derived strain A549 adjusted to 13.5×10^4 cells/ml by a 5-%-FBS-containing DMEM culture medium was added to each well of the above-explained plate by 25 μl (the number of cells was 3.4×10^3 cells/well, and the final concentration of the culture medium additive was 5% FBS and 0.5% Matrigel).
# At the third day of the culturing, TGF-β2 (made by R&D systems corporation, 302-B2-002) and TNF-α (made by R&D systems corporation, 210-TA-010) which were epithelial-mesenchymal transition inducers were added to each well in such a way that a final concentration became 5 ng/ml and 10 ng/ml, respectively. While at the same time, SB431542 (made by Miltenyi Biotec corporation, 130-095-561) that was an inhibitor of TGF-β2 was added in such a way that a final concentration became 10 μM.
# Dimethyl-sulfoxide was added to all wells where no SB431542 was added in such a way that a final concentration became 0.1%.
# At the fifth day of the culturing, a hypoxic area detection reagent LOX-1 (made by SCIVAX corporation) was added to each well in such a way that a final concentration became 2 μM. LOX-1 is a reagent that contains iridium complex which emits red phosphorescence.
# An observation through a fluorescent microscope was carried out at the sixth day of the culturing.
# [2] = A549, SB431542 10 μM with TGF-β2 5 ng/ml and TNF-α 10 ng/ml, LOX-1 2 μM, sixth day
structure (smiles),measurement,setting,value
NC(=O)c1ccc(-c2nc(-c3ccc4c(c3)OCO4)c(-c3ccccn3)[nH]2)cc1 [SB431542],expression level of E-cadherin,E-cadherin,~60 % of the control
same,expression level of N-cadherin,N-cadherin,decreased to substantially same level as that of the control
same,morphology of spheroids (bright field image),"[1]; A549, SB431542 10 μM with TGF-β2 5 ng/ml and TNF-α 10 ng/ml added at third day, observed sixth day, compared with well where no inhibitor was added",the collapse of spheroids were suppressed and the contours of the spheroids had a small concavity and convexity
same,"red intensity and red area (hypoxic area, LOX-1, fluorescent field image)",[1]; [2],the red intensity was high and the red area was large
same,"red signal (quantified, FIG. 5) relative to the well where no inhibitor was added",[1]; [2],about twice
